Drawing on US8431593B2, “Heteroaryl amide derivatives” (H. Lundbeck A/S, priority 2006, dated 2013), this text covers IC50 for 22 molecules.

Where only a bound is given, the exact number is not on record here.

One test deals with T1, P2X7 receptor (Homo sapiens, UniProt Q99572).
T1 construct: host or cells: SH-SY5Y
T1 sequence (Q99572 1-595): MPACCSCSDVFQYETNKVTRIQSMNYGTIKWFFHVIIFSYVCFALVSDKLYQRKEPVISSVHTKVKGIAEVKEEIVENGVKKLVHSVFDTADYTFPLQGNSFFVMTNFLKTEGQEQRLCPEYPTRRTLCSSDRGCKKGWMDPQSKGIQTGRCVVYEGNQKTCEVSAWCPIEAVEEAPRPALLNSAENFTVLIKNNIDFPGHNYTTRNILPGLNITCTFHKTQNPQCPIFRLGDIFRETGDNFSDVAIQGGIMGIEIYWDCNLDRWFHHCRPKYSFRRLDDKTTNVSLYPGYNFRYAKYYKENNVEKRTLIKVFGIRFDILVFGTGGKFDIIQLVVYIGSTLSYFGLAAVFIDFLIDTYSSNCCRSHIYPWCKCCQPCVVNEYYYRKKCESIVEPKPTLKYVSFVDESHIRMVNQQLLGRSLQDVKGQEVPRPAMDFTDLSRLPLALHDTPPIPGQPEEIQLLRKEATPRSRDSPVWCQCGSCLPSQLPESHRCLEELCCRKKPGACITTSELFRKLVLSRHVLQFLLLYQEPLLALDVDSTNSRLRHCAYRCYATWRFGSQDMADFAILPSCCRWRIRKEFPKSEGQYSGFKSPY
The test can be described thus: P2X7 calcium mobilization assay, high throughput, antagonist activity (Example 4A).
Conditions: not given
The format is cell-based. In short, it runs like this:
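Cells plated at 100,000/well the day before were dye-loaded for 1 h, then incubated 1 h at room temperature with test compound before agonist-triggered calcium mobilization was read on FLIPR Tetra. Maximum RFU was corrected by subtracting the no-agonist control and related to the agonist-control response.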
In general, IC50 refers to the concentration at which inhibition is half-maximal. With `CC(C)CNCc1cn2c(C(=O)NCC34CC5CC(CC(C5)C3)C4)cccc2n1` [Compound 12, N-(adamantan-1-ylmethyl)-2-[(isobutyl-amino)methyl]imi-dazo[1,2-a]pyridine-5-carboxamide], the half-maximal inhibitory concentration (IC50) was less than 2000 nM.

Still in this test, the particulars now being: 50% decrease in the fluorescence response of cells exposed to 80 μM 2′(3′)-O-(4-benzoyl-benzoyl)adenosine 5′-triphosphate; Example 4A; read-out: IC50.
Regarding `CC1(C)[C@H]2CC[C@@H](CNC(=O)c3cccc4nc(C(=O)N5CCC(F)(F)CC5)cn34)[C@@H]1C2` [Compound 485, 2-[(4,4-difluoropiperidin-1-yl)carbonyl]-N-{[(1S,2R,5S)-6,6-dimethylbicyclo[3.1.1]hept-2-yl]methyl} imidazo[1,2-a]pyridine-5-carboxamide], the IC50 is less than 2000 nM.
On the same count and under the same terms, in the case of `COC1CCN(C(=O)c2cn3c(C(=O)NC[C@@H]4CC[C@H]5C[C@@H]4C5(C)C)cccc3n2)CC1` [Compound 493, N-{[(1S,2R,5S)-6,6-dimethylbicyclo [3.1.1]hept-2-yl]methyl}-2-[(4-methoxy-piperidin-1-yl)carbonyl] imidazo[1,2-a] pyridine-5-carboxamide] it was less than 2000 nM.
Turning to `COCCN(C(=O)Cc1cn2c(C(=O)NC[C@@H]3CC[C@@H]4C[C@H]3C4(C)C)cccc2n1)C1CCNCC1(C)C` (stereo partly drawn) [Compound 573, N-{[(1R,2R,5R)-6,6-dimethylbicyclo[3.1.1]hept-2-yl]methyl}-2-{2-[(3,3-dimethyl-piperidin-4-yl)(2-methoxyethyl)amino]-2-oxoethyl}imidazo [1,2-a]pyridine-5-carboxamide], the IC50 is less than 2000 nM.
As to `O=C(CC12CC3CC(CC(C3)C1)C2)Nc1cccc2nc(CSc3nnc[nH]3)cn12` [Compound 540, 2-adamantan-1-yl-N-{2-[(4H-1,2,4-triazol-3-ylthio)methyl]imidazo [1,2-a]pyridin-5-yl}acetamide], the half-maximal inhibitory concentration (IC50) is less than 2000 nM.

The test is the same for the next values; noted with them: 50% decrease in the fluorescence response of cells exposed to 80 μM of 2′(3′)-O-(4-benzoyl-benzoyl)adenosine 5′-triphosphate; Example 4A; read-out: IC50.
With `CC(Cc1cn2c(C(=O)NCC34CC5CC(CC(C5)C3)C4)cccc2n1)C(=O)O` (stereo not shown) [Compound 693, 3-{5-[(adamantan-1-ylmethyl)carbamoyl]imidazo[1,2-a]pyridin-2-yl}-2-methylpropanoic acid], the IC50 was less than 2000 nM.
Same read-out and setting: the figure for `CC(C(=O)N1CC[C@@H](NC(=O)OC(C)(C)C)C1)c1cn2c(C(=O)NCC34CC5CC(CC(C5)C3)C4)cccc2n1` (stereo in doubt) [Compound 749, tert-butyl [1-(2-{5-[(adamantan-1-ylmethyl)carbamoyl]imidazo[1,2-a]pyridin-2-yl}propanoyl)pyrrolidin-3-yl]carbamate] is less than 2000 nM.
Turning to `CN(C)C1CCCN(C(=O)Cc2cn3c(C(=O)NCC45CC6CC(CC(C6)C4)C5)cccc3n2)C1` (stereo not shown) [Compound 740, N-(adamantan-1-ylmethyl)-2-{2-[3-(dimethylamino)piperidin-1-yl]-2-oxoethyl}imidazo[1,2-a]pyridine-5-carboxamide], the half-maximal inhibitory concentration (IC50) was less than 2000 nM.
Same read-out and setting: in the case of `CC(C)(C)OC(=O)Nc1cn2c(C(=O)NCC34CC5CC(CC(C5)C3)C4)cccc2n1` [Compound 788, tert-butyl {5-[(adamantan-1-ylmethyl)carbamoyl]imidazo[1,2-a]pyridin-2-yl}carbamate] it was less than 2000 nM; in that of `CCN(C)CCN(CC)C(=O)c1cn2c(C(=O)NCC34CC5CC(CC(C5)C3)C4)cccc2n1` [Compound 673, 5-N-(adamantan-1-ylmethyl)-2-N-ethyl-2-N-{2-[ethyl(methyl)amino]ethyl}imidazo[1,2-a]pyridine-2,5-dicarboxamide], less than 2000 nM.

Still in this test, the particulars now being: 50% decrease in the fluorescence response of cells exposed to 80 μM of 2′(3′)-O-(4-benzoyl-benzoyl)adenosine 5′-triphosphate; determined as in Example 4A; read-out: IC50.
For `O=C(O)CCc1cn2c(C(=O)NCC3(c4ccc(Cl)cc4)CCCCC3)cccc2n1` [Compound 900, 3-[5-({[1-(4-chlorophenyl)cyclohexyl]methyl}carbamoyl)imidazo[1,2-a]pyridin-2-yl] propanoic acid], the concentration for half-maximal inhibition (IC50) was less than 2000 nM.
Same read-out and setting: the figure for `N[C@@H]1CCN(Cc2cn3c(C(=O)NCC4(c5ccc(Cl)cc5)CCOCC4)cccc3n2)C1` [Compound 910, 2-{[(3R)-3-aminopyrrolidin-1-yl]methyl}-N-{[4-(4-chlorophenyl)tetrahydro-2H-pyran-4-yl]methyl} imidazo[1,2-a] pyridine-5-carboxamide] is less than 2000 nM; for `CC(C)CC(CNC(=O)c1cccc2nc(CN(C)CCO)cn12)c1ccc(Cl)cc1` (stereo not shown) [Compound 943, N-[2-(4-chlorophenyl)-4-methylpentyl]-2-{[(2-hydroxyethyl)(methyl)amino]methyl}imidazo [1,2-a]pyridine-5-carboxamide] it is less than 2000 nM.
Still for that read-out and setting: in the case of `O=C(NCC12CC3CC(CC(C3)C1)C2)c1cccc2nc(C3(C(=O)O)CCCCC3)cn12` [Compound 851, 1-{5-[(adamantan-1-ylmethyl)carbamoyl]imidazo [1,2-a]pyridin-2-yl} cyclohexane-carboxylic acid] it was less than 2000 nM; in that of `COC1CCN(C(=O)Cc2cn3c(C(=O)NCC4(c5ccc(Cl)cc5)CCCCC4)cccc3n2)CC1` [Compound 898, N-{[1-(4-chlorophenyl)cyclohexyl]methyl}-2-[2-(4-methoxypiperidin-1-yl)-2-oxoethyl] imidazo[1,2-a] pyridine-5-carboxamide], less than 2000 nM.
The same measure, in the same setting: the figure for `CC(C)(C)CCNC(=O)Cc1cn2c(C(=O)NCC3(c4ccc(C(F)(F)F)cc4)CCCCC3)cccc2n1` [Compound 883, 2-{2-[(3,3-dimethylbutyl)amino]-2-oxoethyl}-N-({1-[4-(trifluoromethyl)phenyl]cyclohexyl}methyl) imidazo[1,2-a] pyridine-5-carboxamide] is less than 2000 nM.

The test is the same for the next values; noted with them: P2X7 calcium mobilization, Example 4A; 50% decrease in the fluorescence response of cells exposed to 80 μM of (2′(3′)-O-(4-benzoyl-benzoyl)adenosine 5′-triphosephate); read-out: IC50.
As to `Cc1ccc(C(CNC(=O)c2cccc3nc(CN4CCCC4)cn23)CC(C)C)cc1` (stereo not shown) [Compound 1048, N-[4-methyl-2-(4-methylphenyl)pentyl]-2-(pyrrolidin-1-ylmethyl) imidazo [1,2-a] pyridine-5-carboxamide], the IC50 is less than 2000 nM.
The same measure, in the same setting: the figure for `CC(C)CC(CNC(=O)c1cccc2nc(C(F)(F)F)cn12)c1ccc(Cl)cc1` (stereo not shown) [Compound 1021, N-[2-(4-chlorophenyl)-4-methylpentyl]-2-(trifluoromethyl) imidazo [1,2-a]pyridine-5-carboxamide] is less than 2000 nM.

The same test, now with this note: SH-SY5Y cells; 50% decrease in fluorescence response to 80 μM BzATP; read-out: IC50.
For `O=C(NCC12CC3CC(CC(C3)C1)C2)c1cccc2nc(CC(=O)N3CCCC(C(F)(F)F)C3)cn12` (stereo not shown) [Compound 174, N-(adamantan-1-ylmethyl)-2-{2-oxo-2-[3-(trifluoromethyl)piperidin-1-yl]ethyl}imidazo[1,2-a]pyridine-5-carboxamide], the concentration for half-maximal inhibition (IC50) was less than 2000 nM.
As to `CC(C)(C)CNC(=O)Cc1cn2c(C(=O)NCC34CC5CC(CC(C5)C3)C4)cccc2n1` [Compound 154, N-(adamantan-1-ylmethyl)-2-{2-[(2,2-dimethylpropyl)amino]-2-oxoethyl}imidazo[1,2-a]pyridine-5-carboxamide], the IC50 was less than 2000 nM.

The same test, now with this note: fluorescence response of cells exposed to 80 μM 2′(3′)-O-(4-benzoyl-benzoyl)adenosine 5′-triphosphate; Example 4A; read-out: IC50.
`C[C@@H]1CNCCN1C(=O)c1cn2c(C(=O)NC[C@@H]3CC[C@H]4C[C@@H]3C4(C)C)cccc2n1` [Compound 305, N-{[(1S,2R,5S)-6,6-dimethylbicyclo[3.1.1]hept-2-yl]methyl}-2-{[(2R)-2-methylpiperazin-1-yl]carbonyl}imidazo[1,2-a]pyridine-5-carboxamide]: the IC50 is less than 2000 nM.
Same read-out and setting: the figure for `CC1(C)[C@H]2CC[C@@H](CNC(=O)c3cccc4nc(C(=O)N5CCCNCC5)cn34)[C@@H]1C2` [Compound 304, 2-(1,4-diazepan-1-ylcarbonyl)-N-{[(1S,2R,5S)-6,6-dimethylbicyclo[3.1.1]hept-2-yl]methyl}imidazo[1,2-a]pyridine-5-carboxamide] is less than 2000 nM.
